The values below come from patent US9708311B2, “Benzimidazole derivatives as EP4 antagonists” (BAYER PHARMA AKTIENGESELLSCHAFT, priority 2012, dated 2017).

The target of the assay is human EP4 receptor (Homo sapiens (Human), UniProt P35408). Kind of assay: Test for antagonism of the human EP4 receptor signal (cAMP HTRF). It counts as cell-based. The following applies: cells expressing hEP4, PGE2 at EC80 (0.4 nM), cAMP TR-FRET; read-out: Antagonism hEP4 IC50. An excerpt: The binding of the agonist prostaglandin E2 (PGE2) to the EP4 subtype of human hPGE2-R (hEP4-R) induces the activation of membrane-bound adenylate cyclases and thus the formation of cAMP. In the presence of the phosphodiesterase inhibitor IBMX, this cAMP accumulates intracellularly and is employed in a competitive detection procedure after cell lysis. In this procedure, it competes with a fluorescence-labelled cAMP (cAMP-d2) for binding to an Eu cryptate-labelled anti-cAMP antibody. In the absence of cellular cAMP, a complex is formed between the Eu cryptate-labelled anti-cAMP antibody and the cAMP-d2 molecule, which after excitation at 337 nm makes possible an energy transfer based on FRET (fluorescence resonance energy transfer) to the cAMP-d2 tracer and leads to a long-lasting fluorescence signal (emission at 665 and 620 nm). This signal is time-resolved, i.e. measured in a suitable measuring apparatus after decay of the background fluorescence (time resolved; TR-FRET). The wave ratio determination (emission 665 nm/emission 620 nm*10000) moreover makes it possible to standardize individual measurement differences in the added amounts of the detection reagents.
By means of prostaglandin E2 administration and increase in the intracellular cAMP, a lowering of the FRET signal occurs, which in the case of an antagonistic substance action increases again.
A further 20 min at room temperature later, the cell lysate is measured according to the manufacturer's instructions in a TR-FRET-suitable measuring apparatus (compare cAMP HTRF assay kit: Cisbio International 62AM6PEJ high range)

Molecules are shown by their SMILES.

Chain of human EP4 receptor (P35408 whole entry): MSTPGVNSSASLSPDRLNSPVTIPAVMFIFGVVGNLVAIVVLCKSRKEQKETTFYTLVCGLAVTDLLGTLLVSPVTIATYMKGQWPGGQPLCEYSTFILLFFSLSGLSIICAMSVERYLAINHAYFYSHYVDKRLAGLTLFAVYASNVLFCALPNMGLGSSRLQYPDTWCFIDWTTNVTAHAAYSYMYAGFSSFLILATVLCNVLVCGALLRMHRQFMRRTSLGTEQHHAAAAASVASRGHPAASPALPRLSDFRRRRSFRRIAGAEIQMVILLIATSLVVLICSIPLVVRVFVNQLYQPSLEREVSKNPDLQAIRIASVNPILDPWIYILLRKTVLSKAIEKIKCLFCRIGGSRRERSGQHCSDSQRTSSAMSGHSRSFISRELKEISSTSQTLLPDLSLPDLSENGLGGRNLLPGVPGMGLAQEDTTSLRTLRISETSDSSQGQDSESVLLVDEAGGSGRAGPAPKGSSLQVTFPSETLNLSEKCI

Regarding `CCn1c2ccccc2c2cc(-c3nc4cc(C(=O)NS(=O)(=O)CC)ccc4n3CCOC)ccc21` [Example 18, 2-(9-Ethyl-9H-carbazol-3-yl)-N-(ethylsulphonyl)-1-(2-methoxyethyl)-1H-benzimidazole-5-carboxamide], the IC50 was 22.8 nM.
As to `CCn1c2ccccc2c2cc(-c3nc4cc(C(=O)OC)ccc4n3CCOC)ccc21` [Example 3, Methyl 2-(9-ethyl-9H-carbazol-3-yl)-1-(2-methoxyethyl)-1H-benzimidazole-5-carboxylate], the IC50 turned out to be 175 nM.
As for `CCn1c2ccccc2c2cc(-c3nc4cc(C(=O)NS(=O)(=O)Cc5ccc(C(F)(F)F)cc5)ccc4n3CCOC)ccc21` [Example 62, 2-(9-Ethyl-9H-carbazol-3-yl)-1-(2-methoxyethyl)-N-{[4-(trifluoromethyl)benzyl]sulphonyl}-1H-benzimidazole-5-carboxamide], the IC50 stood at 186 nM.
For `CCn1c2ccccc2c2cc(-c3nc4cc(S(N)(=O)=O)ccc4n3CCOC)ccc21` [Example 127, 2-(9-Ethyl-9H-carbazol-3-yl)-1-(2-methoxyethyl)-1H-benzimidazole-5-sulphonamide], the IC50 came to 305 nM.
Under `CCn1c2ccccc2c2cc(-c3nc4cc(C(=O)NCCN5CCCC5)ccc4n3CCOC)ccc21` [Example 87, 2-(9-Ethyl-9H-carbazol-3-yl)-1-(2-methoxyethyl)-N-[2-(pyrrolidin-1-yl)ethyl]-1H-benzimidazole-5-carboxamide] stands 209 nM.
For the compound `CCn1c2ccccc2c2cc(-c3nc4cc(C(=O)NS(=O)(=O)c5ccccc5OC)ccc4n3CCOC)ccc21` [Example 52, 2-(9-Ethyl-9H-carbazol-3-yl)-1-(2-methoxyethyl)-N-[(2-methoxyphenyl)sulphonyl]-1H-benzimidazole-5-carboxamide], the IC50 was 35.9 nM.
With `CCn1c2ccc(-c3nc4cc(C(=O)O)ccc4n3CCOC)cc2c2c(F)cccc21` [Example 11, 2-(9-Ethyl-5-fluoro-9H-carbazol-3-yl)-1-(2-methoxyethyl)-1H-benzimidazole-5-carboxylic acid], the IC50 is 6.36 nM.
Take `CCn1c2ccccc2c2cc(-c3nc4cc(C(=O)NS(=O)(=O)CCc5cccc(OC)c5)ccc4n3CCOC)ccc21` [Example 69, 2-(9-Ethyl-9H-carbazol-3-yl)-1-(2-methoxyethyl)-N-{[2-(3-methoxyphenyl)ethyl]-sulphonyl}-1H-benzimidazole-5-carboxamide]: the IC50 stood at 155 nM.
Under `CCn1c2ccccc2c2cc(-c3nc4c(C)c(C(=O)O)ccc4n3CC3CC3)cnc21` [Example 107, 1-(Cyclopropylmethyl)-2-(9-ethyl-9H-pyrido[2,3-b]indol-3-yl)-4-methyl-1H-benzimidazole-5-carboxylic acid] stands 433 nM.
Under `CCn1c2ccccc2c2cc(-c3nc4cc(C(=O)NS(=O)(=O)C5CC5)ccc4n3CCOC)ccc21` [Example 16, N-(Cyclopropylsulphonyl)-2-(9-ethyl-9H-carbazol-3-yl)-1-(2-methoxyethyl)-1H-benzimidazole-5-carboxamide] stands 28.6 nM; under `CCOC(=O)c1ccc2c(c1)nc(-c1ccc3c(c1)c1ccccc1n3CC)n2CCN(C)C` [Example 71, Ethyl-1-[2-(dimethylamino)ethyl]-2-(9-ethyl-9H-carbazol-3-yl)-1H-benzimidazole-5-carboxylate], 872 nM; under `CCn1c2ccccc2c2cc(-c3nc4cc(C(=O)N5CCCC5)ccc4n3CC3CC3)ccc21` [Example 22, [1-(Cyclopropylmethyl)-2-(9-ethyl-9H-carbazol-3-yl)-1H-benzimidazol-5-yl](pyrrolidin-1-yl)methanone], 65.7 nM.
The same measure for `CCOC(=O)c1ccc2c(c1)nc(-c1ccc3c(c1)c1ccccc1n3CC)n2CC1COC1` [Example 122, Ethyl 2-(9-ethyl-9H-carbazol-3-yl)-1-(oxetan-3-ylmethyl)-1H-benzimidazole-5-carboxylate]: 464 nM.
Turning to `CCn1c2ccccc2c2cc(-c3nc4cc(C(=O)O)ccc4n3C(C)C)ccc21` [Example 93, 2-(9-Ethyl-9H-carbazol-3-yl)-1-isopropyl-1H-benzimidazole-5-carboxylic acid], the IC50 came out at 733 nM.
The same measure for `CCn1c2ccccc2c2cc(-c3nc4cc(C(N)=O)ccc4n3CC3CC3)ccc21` [Example 26, 1-(Cyclopropylmethyl)-2-(9-ethyl-9H-carbazol-3-yl)-1H-benzimidazole-5-carboxamide]: 176 nM; for `CCn1c2ccc(-c3nc4c(C)c(C(=O)O)ccc4n3CCOC)cc2c2cccc(Cl)c21` [Example 143, 2-(8-Chloro-9-ethyl-9H-carbazol-3-yl)-1-(2-methoxyethyl)-4-methyl-1H-benzimidazole-5-carboxylic acid]: 5.19 nM; for `CCn1c2ccccc2c2nc(-c3nc4cc(C(=O)O)ccc4n3CCOC)ccc21` [Example 42, 2-(5-Ethyl-5H-pyrido[3,2-b]indol-2-yl)-1-(2-methoxyethyl)-1H-benzimidazole-5-carboxylic acid]: 239 nM.
The same measure for `CCn1c2ccccc2c2cc(-c3nc4cc(C(=O)NC)ccc4n3CC3CC3)ccc21` [Example 24, 1-(Cyclopropylmethyl)-2-(9-ethyl-9H-carbazol-3-yl)-N-methyl-1H-benzimidazole-5-carboxamide]: 338 nM.
The same measure for `CCn1c2ccccc2c2cc(-c3nc4cc(C(=O)N(C)S(C)(=O)=O)ccc4n3CCOC)ccc21` [Example 84, 2-(9-Ethyl-9H-carbazol-3-yl)-1-(2-methoxyethyl)-N-methyl-N-(methylsulphonyl)-1H-benzimidazole-5-carboxamide]: 143 nM; for `CCn1c2ccccc2c2cc(-c3nc4cc(C(=O)NS(=O)(=O)Cc5ccc(Cl)cc5)ccc4n3CCOC)ccc21` [Example 64, N-[(4-Chlorobenzyl)sulphonyl]-2-(9-ethyl-9H-carbazol-3-yl)-1-(2-methoxyethyl)-1H-benzimidazole-5-carboxamide]: 138 nM; for `CCn1c2ccccc2c2cc(-c3nc4cc(C(=O)O)ccc4n3CCO)ccc21` [Example 91, 2-(9-Ethyl-9H-carbazol-3-yl)-1-(2-hydroxyethyl)-1H-benzimidazole-5-carboxylic acid]: 113 nM.
As for `CCn1c2ccccc2c2cc(-c3nc4cc(-n5ccnn5)ccc4n3C)ccc21` [Example 128, 9-Ethyl-3-[1-methyl-5-(1H-1,2,3-triazol-1-yl)-1H-benzimidazole-2-yl]-9H-carbazole], the IC50 turned out to be 111 nM.
The same measure for `CCCn1c2ccccc2c2cc(-c3nc4cc(C(=O)O)ccc4n3CCOC)ccc21` [Example 118, 1-(2-Methoxyethyl)-2-(9-propyl-9H-carbazol-3-yl)-1H-benzimidazole-5-carboxylic acid]: 36.2 nM; for `O=C(O)c1ccc2c(c1)nc(-c1ccc3c(c1)c1ccccc1n3CC1CC1)n2CC1CC1` [Example 35, 1-(Cyclopropylmethyl)-2-[9-(cyclopropylmethyl)-9H-carbazol-3-yl]-1H-benzimidazole-5-carboxylic acid]: 33.8 nM.
The same measure for `CCOC(=O)c1ccc2c(c1)nc(-c1ccc3c(c1)c1ccccc1n3CCOC)n2CCOC` [Example 97, Ethyl 1-(2-methoxyethyl)-2-[9-(2-methoxyethyl)-9H-carbazol-3-yl]-1H-benzimidazole-5-carboxylate]: 412 nM.
Under `CCn1c2ccccc2c2cc(-c3nc4cc(C(=O)NCCOC)ccc4n3CCOC)ccc21` [Example 31, 2-(9-Ethyl-9H-carbazol-3-yl)-N,1-bis(2-methoxyethyl)-1H-benzimidazole-5-carboxamide] stands 42.8 nM; under `C=CCn1c2ccccc2c2cc(-c3nc4cc(C(=O)O)ccc4n3CCOC)ccc21` [Example 96, 2-(9-Allyl-9H-carbazol-3-yl)-1-(2-methoxyethyl)-1H-benzimidazole-5-carboxylic acid], 16.5 nM; under `CCn1c2ccccc2c2cc(-c3nc4cc(C(=O)O)ccc4n3C[C@H](O)COC)ccc21` [Example 135, 2-(9-Ethyl-9H-carbazol-3-yl)-1-[(2S)-2-hydroxy-3-methoxypropyl]-1H-benzimidazole-5-carboxylic acid], 340 nM.
With `CCn1c2ccccc2c2cc(-c3nc4cc(C(=O)NS(=O)(=O)c5cccc(Cl)c5)ccc4n3CCOC)ccc21` [Example 17, N-[(3-Chlorophenyl)sulphonyl]-2-(9-ethyl-9H-carbazol-3-yl)-1-(2-methoxyethyl)-1H-benzimidazole-5-carboxamide], the IC50 amounted to 14.7 nM.
Under `CCn1c2ccccc2c2cc(-c3nc4cc(C(=O)NS(C)(=O)=O)ccc4n3CCOC)ccc21` [Example 15, 2-(9-Ethyl-9H-carbazol-3-yl)-1-(2-methoxyethyl)-N-(methylsulphonyl)-1H-benzimidazole-5-carboxamide] stands 23.8 nM; under `CCn1c2ccccc2c2cc(-c3nc4cc(C(=O)O)c(C)cc4n3CCOC)ccc21` [Example 111, 2-(9-Ethyl-9H-carbazol-3-yl)-1-(2-methoxyethyl)-6-methyl-1H-benzimidazole-5-carboxylic acid], 612 nM.

The term IC50 denotes the concentration at which inhibition is half-maximal.
